US8748624B2, “Picolinamido-propanoic acid derivatives useful as glucagon receptor antagonists” (Janssen Pharmaceutica NV, priority 2011, dated 2014)

Assays:
[1] = target: human glucagon receptor (GCGR) (Homo sapiens (Human), UniProt P47871); test: Inhibition of 125I-glucagon binding to membranes from HEK293 cells expressing the human glucagon receptor; conditions: membranes of hGluc-1 HEK cells, 125I-glucagon 0.3 nM
How it was run: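 Compound displacement of ¹²⁵I-glucagon (0.3 nM) was run for 2 h at room temperature in 50 mM HEPES pH 7.4 with 5 mM MgCl2, 1 mM CaCl2 and 0.2% BSA, using 6 μg/well membranes from stably transfected hGCGR HEK293 cells. Filter-bound counts gave IC50s, expressed as Ki.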

human GCGR = human GCGR (Homo sapiens (Human), UniProt P47871); test: Cellular functional assay, cAMP readout (glucagon-stimulated cAMP in HEK293 cells expressing human GCGR); type: cell-based; conditions: hGluc-1 HEK cells
Sequence of human GCGR (P47871 26-477): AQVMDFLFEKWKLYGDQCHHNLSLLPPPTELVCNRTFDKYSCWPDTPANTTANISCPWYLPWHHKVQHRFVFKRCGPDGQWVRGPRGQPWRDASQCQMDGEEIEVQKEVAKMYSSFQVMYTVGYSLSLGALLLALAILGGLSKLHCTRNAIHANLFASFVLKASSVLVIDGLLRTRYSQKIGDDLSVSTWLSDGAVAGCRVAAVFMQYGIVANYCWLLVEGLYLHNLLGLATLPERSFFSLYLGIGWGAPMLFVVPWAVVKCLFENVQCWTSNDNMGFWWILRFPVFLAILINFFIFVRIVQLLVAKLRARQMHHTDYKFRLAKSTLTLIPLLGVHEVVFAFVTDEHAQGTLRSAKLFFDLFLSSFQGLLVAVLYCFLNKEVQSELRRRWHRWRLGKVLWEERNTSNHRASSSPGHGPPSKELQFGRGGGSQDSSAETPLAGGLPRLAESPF
How it was run: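 HEK293 cells stably transfected with full-length human GCGR were exposed to compound for 30 min before a 5-min challenge with […] (final) glucagon. Readout was TR-FRET (LANCE) cAMP versus standard curve; IC50s fitted by non-linear regression and converted to Ki values.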

[2] = 2 hours room temperature, IC50 converted to Ki, average if tested more than once
[3] = LANCE TR-FRET, IC50 converted to Ki, average if tested more than once
[4] = meta-substituted comparative compounds (Table 3)

Sequence of human glucagon receptor (GCGR) (P47871 26-477): as above

Row | Structure (SMILES) | Ki [1, 2] [nM] | Ki (human GCGR; [3]) [nM] | Ki [1, 4] [nM] | Ki (human GCGR; [4]) [nM]
1 | O=C(O)CCNC(=O)c1ccc(-c2cc(Cl)ccc2CNc2ccc(-c3ccc(F)cc3F)c(Cl)c2)cn1 [Compound 63, 3-(5-(5-chloro-2-(((2-chloro-2′,4′-difluoro-[1,1′-biphenyl]-4-yl)amino)methyl)phenyl)picolinamido)propanoic acid] | 22.6 | 188 |  | 
2 | O=C(O)CCNC(=O)c1ccc(-c2ccccc2CNc2ccc(-c3ccccc3)cc2)cn1 [Compound 1, 3-(5-(2-(([1,1′-biphenyl]-4-ylamino)methyl)phenyl)picolinamido)propanoic acid] | > 5400 | > 10400 |  | 
3 | O=C(O)CCNC(=O)c1ccc(-c2cc(C(F)(F)F)ccc2CNc2ccc(-c3ccc(Cl)cc3)cc2)cn1 [Compound 44, 3-(5-(2-(((4′-chloro-[1,1′-biphenyl]-4-yl)amino)methyl)-5-(trifluoromethyl)phenyl)picolinamido)propanoic acid] | 18.4 | 60.1 |  | 
4 | CN(Cc1ccc(Cl)cc1-c1ccc(C(=O)NCCC(=O)O)nc1)c1ccc(-c2ccc(Cl)cc2)cc1 [Compound 17, 3-(5-(5-chloro-2-(((4′-chloro-[1,1′-biphenyl]-4-yl)(methyl)amino)methyl)phenyl)picolinamido)propanoic acid] | 1480 | > 10400 |  | 
5 | O=C(O)CCNC(=O)c1ccc(-c2cc(C(F)(F)F)ccc2CNc2ccc(-c3ccc(C(F)(F)F)cc3Cl)c(Cl)c2)cn1 [Compound 42, 3-(5-(2-(((2,2′-dichloro-4′-(trifluoromethyl)-[1,1′-biphenyl]-4-yl)amino)methyl)-5-(trifluoromethyl)phenyl)picolinamido)propanoic acid] | 16.5 | 20 |  | 
6 | CC(C)(C)c1ccc(-c2ccc(NCc3ccccc3-c3ccc(C(=O)NCCC(=O)O)nc3)cc2)cc1 [Compound 3, 3-(5-(2-(((4′-(tert-butyl)-[1,1′-biphenyl]-4-yl)amino)methyl)phenyl)picolinamido)propanoic acid] | > 5400 | > 10400 |  | 
7 | O=C(O)CCNC(=O)c1ccc(-c2cc(C(F)(F)F)ccc2CNc2ccc(-c3ccc(F)cc3Cl)c(Cl)c2)cn1 [Compound 33, 3-(5-(2-(((2,2′-dichloro-4′-fluoro-[1,1′-biphenyl]-4-yl)amino)methyl)-5-(trifluoromethyl)phenyl)picolinamido)propanoic acid] | 21.3 | 59.8 |  | 
8 | O=C(O)CCNC(=O)c1ccc(-c2cc(Cl)ccc2CNc2ccc(-c3ccc(Cl)cc3)c(Cl)c2)cn1 [Compound 10, 3-(5-(5-chloro-2-(((2,4′-dichloro-[1,1′-biphenyl]-4-yl)amino)methyl)phenyl)picolinamido)propanoic acid] | 31.2 | 110 |  | 
9 | Cc1cc(Cl)ccc1-c1ccc(NCc2ccc(C(F)(F)F)cc2-c2ccc(C(=O)NCCC(=O)O)nc2)cc1Cl [Compound 34, 3-(5-(2-(((2,4′-dichloro-2′-methyl-[1,1′-biphenyl]-4-yl)amino)methyl)-5-(trifluoromethyl)phenyl)picolinamido)propanoic acid] | 23.8 | 17.1 |  | 
10 | O=C(O)CCNC(=O)c1ccc(-c2cc(C(F)(F)F)cc(C(F)(F)F)c2CNc2ccc(-c3ccc(Cl)cc3)cc2)cn1 [Compound 71, 3-(5-(2-(((4′-chloro-[1,1′-biphenyl]-4-yl)amino)methyl)-3,5-bis(trifluoromethyl)phenyl)picolinamido)propanoic acid] | 31.3 | 17.3 |  | 
11 | O=C(O)CCNC(=O)c1ccc(-c2cc(F)ccc2CNc2ccc(-c3ccc(C(F)(F)F)cc3)c(F)c2)cn1 [Compound 56, 3-(5-(5-fluoro-2-(((2-fluoro-4′-(trifluoromethyl)-[1,1′-biphenyl]-4-yl)amino)methyl)phenyl)picolinamido)propanoic acid] | 98.8 | 309 |  | 

Now from value to compound:

Row | Ki [1, 2] [nM] | Ki (human GCGR; [3]) [nM] | Ki [1, 4] [nM] | Ki (human GCGR; [4]) [nM] | Structure (SMILES)
12 | 20.7 | 66.8 |  |  | O=C(O)CCNC(=O)c1ccc(-c2cc(Cl)ccc2CNc2ccc(-c3cccc(C(F)(F)F)c3)c(Cl)c2)cn1 [Compound 170, 3-(5-(5-chloro-2-(((2-chloro-3′-(trifluoromethyl)-[1,1′-biphenyl]-4-yl)amino)methyl)phenyl)picolinamido)propanoic acid]
13 | 19.4 | 114 |  |  | O=C(O)CCNC(=O)c1ccc(-c2cc(Cl)ccc2CNc2ccc(-c3ccc(Cl)cc3Cl)c(F)c2)cn1 [Compound 92, 3-(5-(5-chloro-2-(((2′,4′-dichloro-2-fluoro-[1,1′-biphenyl]-4-yl)amino)methyl)phenyl)picolinamido)propanoic acid]
14 | 26.9 | 69.2 |  |  | Cc1ccc(-c2ccc(NCc3ccc(Cl)cc3-c3ccc(C(=O)NCCC(=O)O)nc3)cc2Cl)cc1 [Compound 172, 3-(5-(5-chloro-2-(((2-chloro-4′-methyl-[1,1′-biphenyl]-4-yl)amino)methyl)phenyl)picolinamido)propanoic acid]
15 | 30.9 | 138 |  |  | O=C(O)CCNC(=O)c1ccc(-c2cc(Cl)ccc2CNc2ccc(-c3c(F)cccc3Cl)cc2)cn1 [Compound 141, 3-(5-(5-chloro-2-(((2′-chloro-6′-fluoro-[1,1′-biphenyl]-4-yl)amino)methyl)phenyl)picolinamido)propanoic acid]
16 | 30.4 | 115 |  |  | N#Cc1cc(NCc2cc(F)c(F)cc2-c2ccc(C(=O)NCCC(=O)O)nc2)ccc1-c1ccc(F)c(C(F)(F)F)c1 [Compound 109, 3-(5-(2-(((2-cyano-4′-fluoro-3′-(trifluoromethyl)-[1,1′-biphenyl]-4-yl)amino)methyl)-4,5-difluorophenyl)picolinamido)propanoic acid]
17 | 18.7 | 34 |  |  | Cc1cc(Cl)ccc1-c1ccc(NCc2ccc(Cl)cc2-c2ccc(C(=O)NCCC(=O)O)nc2)cc1 [Compound 148, 3-(5-(5-chloro-2-(((4′-chloro-2′-methyl-[1,1′-biphenyl]-4-yl)amino)methyl)phenyl)picolinamido)propanoic acid]
18 | 69.6 | 180 |  |  | N#Cc1cc(NCc2cc(F)c(F)cc2-c2ccc(C(=O)NCCC(=O)O)nc2)ccc1-c1ccc(Cl)cc1F [Compound 111, 3-(5-(2-(((4′-chloro-2-cyano-2′-fluoro-[1,1′-biphenyl]-4-yl)amino)methyl)-4,5-difluorophenyl)picolinamido)propanoic acid]
19 | 24.2 | 45.8 |  |  | O=C(O)CCNC(=O)c1ccc(-c2cc(C3CCCCC3)ccc2CNc2ccc(-c3ccc(F)cc3)cc2)cn1 [Compound 175, 3-(5-(5-cyclohexyl-2-(((4′-fluoro-[1,1′-biphenyl]-4-yl)amino)methyl)phenyl)picolinamido)propanoic acid]
20 | 27.8 | 6.7 |  |  | Cc1cc(NCc2c(Cl)cc(C(F)(F)F)cc2-c2ccc(C(=O)NCCC(=O)O)nc2)ccc1-c1ccc(Cl)cc1 [Compound 75, 3-(5-(3-chloro-2-(((4′-chloro-2-methyl-[1,1′-biphenyl]-4-yl)amino)methyl)-5-(trifluoromethyl)phenyl)picolinamido)propanoic acid]
21 | 28.1 | 268 |  |  | Cc1cc(-c2ccc(NCc3ccc(Cl)cc3-c3ccc(C(=O)NCCC(=O)O)nc3)cc2)ccc1F [Compound 146, 3-(5-(5-chloro-2-(((4′-fluoro-3′-methyl-[1,1′-biphenyl]-4-yl)amino)methyl)phenyl)picolinamido)propanoic acid]
22 | 37.8 | 161 |  |  | CC(=O)c1ccc(-c2ccc(NCc3ccc(Cl)cc3-c3ccc(C(=O)NCCC(=O)O)nc3)cc2)cc1 [Compound 156, 3-(5-(2-(((4′-acetyl-[1,1′-biphenyl]-4-yl)amino)methyl)-5-chlorophenyl)picolinamido)propanoic acid]
23 |  |  | > 1350 | > 10400 | O=C(O)CCNC(=O)c1ccc(-c2cc(Cl)cc(CNc3ccc(-c4ccc(Cl)cc4)cc3)c2)cn1 [Compound M3, 3-(5-(3-chloro-5-(((4′-chloro-[1,1′-biphenyl]-4-yl)amino)methyl)phenyl)picolinamido)propanoic acid, reference compound]
24 | 20 | 125 |  |  | CC(C)c1ccc(CNc2ccc(-c3ccc(F)cc3)cc2)c(-c2ccc(C(=O)NCCC(=O)O)nc2)c1 [Compound 158, 3-(5-(2-(((4′-fluoro-[1,1′-biphenyl]-4-yl)amino)methyl)-5-isopropylphenyl)picolinamido)propanoic acid]
25 | 37.9 | 370 |  |  | CC(C)(C)c1ccc(-c2ccc(NCc3ccc(Cl)cc3-c3ccc(C(=O)NCCC(=O)O)nc3)cc2Cl)cc1 [Compound 168, 3-(5-(2-(((4′-(tert-butyl)-2-chloro-[1,1′-biphenyl]-4-yl)amino)methyl)-5-chlorophenyl)picolinamido)propanoic acid]
26 | 14.9 | 7.1 |  |  | O=C(O)CCNC(=O)c1ccc(-c2cc(C(F)(F)F)cc(Cl)c2CNc2ccc(-c3ccc(Cl)cc3)c(Cl)c2)cn1 [Compound 74, 3-(5-(3-chloro-2-(((2,4′-dichloro-[1,1′-biphenyl]-4-yl)amino)methyl)-5-(trifluoromethyl)phenyl)picolinamido)propanoic acid]
27 | 28.6 | 47.4 |  |  | O=C(O)CCNC(=O)c1ccc(-c2cc(C(F)(F)F)c(Cl)cc2CNc2ccc(-c3ccc(Cl)cc3)cc2)cn1 [Compound 80, 3-(5-(4-chloro-2-(((4′-chloro-[1,1′-biphenyl]-4-yl)amino)methyl)-5-(trifluoromethyl)phenyl)picolinamido)propanoic acid]
